ChEMBL document CHEMBL1201862, “PubChem BioAssay data set” (2004)
Calls of active or inactive are those of the source.

What was measured:
[1] = target: T1, Cytochrome P450 1A2 (Homo sapiens, UniProt P05177);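 also: PubChem cytochrome P450 panel assay, CYP1A2 panel member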
T1 sequence (P05177 whole entry): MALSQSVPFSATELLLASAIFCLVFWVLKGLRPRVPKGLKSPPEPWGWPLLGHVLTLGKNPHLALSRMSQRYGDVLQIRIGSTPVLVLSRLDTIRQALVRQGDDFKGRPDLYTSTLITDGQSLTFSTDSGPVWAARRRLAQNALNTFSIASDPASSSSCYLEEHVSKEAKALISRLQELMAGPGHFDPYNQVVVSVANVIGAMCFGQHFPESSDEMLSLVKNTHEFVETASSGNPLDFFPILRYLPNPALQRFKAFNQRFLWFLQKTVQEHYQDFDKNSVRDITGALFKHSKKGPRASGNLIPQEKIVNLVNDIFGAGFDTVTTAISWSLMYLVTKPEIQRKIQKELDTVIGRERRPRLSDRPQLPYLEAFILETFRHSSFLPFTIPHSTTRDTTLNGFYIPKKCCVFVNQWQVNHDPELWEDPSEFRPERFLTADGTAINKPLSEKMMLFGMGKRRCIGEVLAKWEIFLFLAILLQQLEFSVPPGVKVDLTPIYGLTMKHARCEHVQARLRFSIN

[2] = target: T2, Adenosylmethionine-8-amino-7-oxononanoate aminotransferase (Mycobacterium tuberculosis, UniProt P9WQ81); experiment: Mycobacterium tuberculosis BioA enzyme inhibitor Measured in Biochemical System Using Plate Reader - 2163-02_Inhibitor_Dose_CherryPick_Activity.; type: functional, Mycobacterium tuberculosis UT205
T2 sequence (P9WQ81 whole entry): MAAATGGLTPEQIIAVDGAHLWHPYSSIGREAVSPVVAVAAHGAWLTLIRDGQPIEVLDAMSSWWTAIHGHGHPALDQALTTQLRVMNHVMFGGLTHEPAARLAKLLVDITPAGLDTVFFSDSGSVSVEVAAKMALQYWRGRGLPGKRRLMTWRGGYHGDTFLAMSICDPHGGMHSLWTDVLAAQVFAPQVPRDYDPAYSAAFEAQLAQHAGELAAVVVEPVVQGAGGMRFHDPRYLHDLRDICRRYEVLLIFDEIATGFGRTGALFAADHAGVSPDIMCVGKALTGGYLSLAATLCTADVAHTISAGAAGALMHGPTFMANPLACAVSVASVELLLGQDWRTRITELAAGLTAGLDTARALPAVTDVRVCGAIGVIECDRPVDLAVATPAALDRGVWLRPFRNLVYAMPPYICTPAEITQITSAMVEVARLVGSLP

[3] = target: T3, Low molecular weight phosphotyrosine protein phosphatase (Homo sapiens, UniProt P24666); type: functional; settings: read-out: IC50_Mean;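 also: Dose-response confirmation assay measuring inhibition of LMPTP enzyme activity by fluorescence intensity read-out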
T3 sequence (P24666 whole entry): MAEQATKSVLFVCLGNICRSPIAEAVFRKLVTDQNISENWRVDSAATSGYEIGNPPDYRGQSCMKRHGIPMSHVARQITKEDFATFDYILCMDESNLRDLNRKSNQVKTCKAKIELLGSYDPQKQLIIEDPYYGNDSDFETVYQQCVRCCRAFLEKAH

[4] = target: Large T antigen (Simian virus 40, UniProt P03070); type: functional, Betapolyomavirus macacae;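 also: Confirmatory-stage PubChem screen for compounds that inhibit SV40 T antigen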
Chain of Large T antigen (P03070 whole entry): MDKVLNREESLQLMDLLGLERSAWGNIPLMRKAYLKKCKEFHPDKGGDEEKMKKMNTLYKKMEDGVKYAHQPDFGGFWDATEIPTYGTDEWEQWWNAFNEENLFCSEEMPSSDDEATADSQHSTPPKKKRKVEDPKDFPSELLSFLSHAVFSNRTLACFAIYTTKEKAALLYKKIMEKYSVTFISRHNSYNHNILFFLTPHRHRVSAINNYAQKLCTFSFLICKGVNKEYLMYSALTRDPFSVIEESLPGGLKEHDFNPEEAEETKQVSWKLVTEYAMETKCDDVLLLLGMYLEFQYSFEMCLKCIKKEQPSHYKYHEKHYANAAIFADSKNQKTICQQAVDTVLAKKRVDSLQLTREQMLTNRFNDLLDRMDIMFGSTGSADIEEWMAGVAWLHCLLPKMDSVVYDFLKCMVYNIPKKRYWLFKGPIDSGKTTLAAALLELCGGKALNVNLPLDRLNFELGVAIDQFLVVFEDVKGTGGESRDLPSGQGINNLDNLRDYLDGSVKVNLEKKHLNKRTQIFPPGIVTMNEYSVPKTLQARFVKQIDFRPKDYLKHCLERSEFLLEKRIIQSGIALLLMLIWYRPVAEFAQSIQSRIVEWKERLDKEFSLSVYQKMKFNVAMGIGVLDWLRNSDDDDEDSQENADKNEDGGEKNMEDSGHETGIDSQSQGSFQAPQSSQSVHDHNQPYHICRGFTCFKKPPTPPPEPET

[5] = target: T4, Streptokinase A (Streptococcus pyogenes serotype M1, UniProt P10520); experiment: viability-normalized secreted streptokinase activity reduction – plasminogen activation absorbance, OD405, dose response (AID 1914); type: functional, Streptococcus pyogenes M1 GAS;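 also: secreted streptokinase activity via plasminogen activation per viability signal from cell pellet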
T4 sequence (P10520 whole entry): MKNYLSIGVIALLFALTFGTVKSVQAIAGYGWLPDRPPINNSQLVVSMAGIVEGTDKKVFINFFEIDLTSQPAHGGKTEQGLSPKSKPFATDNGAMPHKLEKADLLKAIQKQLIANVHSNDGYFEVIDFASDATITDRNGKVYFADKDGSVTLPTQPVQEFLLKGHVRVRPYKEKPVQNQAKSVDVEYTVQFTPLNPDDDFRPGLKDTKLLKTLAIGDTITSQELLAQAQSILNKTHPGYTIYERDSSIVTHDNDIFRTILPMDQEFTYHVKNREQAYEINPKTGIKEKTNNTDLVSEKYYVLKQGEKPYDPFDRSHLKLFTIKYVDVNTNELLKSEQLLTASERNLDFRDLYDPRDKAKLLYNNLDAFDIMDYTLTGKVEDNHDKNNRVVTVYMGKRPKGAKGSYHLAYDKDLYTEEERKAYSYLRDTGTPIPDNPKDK

[6] = target: T5, Long-chain-fatty-acid--AMP ligase FadD28 (Mycobacterium tuberculosis, UniProt P9WQ59); experiment: Fluorescence polarization aasay to screen for inhibitors that compete for the binding of FadD28 to a bisubstrate Measured in Biochemical System Using Plate Reader - 2147-01_Inhibitor_Dose_CherryPick_Activity.; type: functional, Mycobacterium tuberculosis H37Rv
T5 sequence (P9WQ59 whole entry): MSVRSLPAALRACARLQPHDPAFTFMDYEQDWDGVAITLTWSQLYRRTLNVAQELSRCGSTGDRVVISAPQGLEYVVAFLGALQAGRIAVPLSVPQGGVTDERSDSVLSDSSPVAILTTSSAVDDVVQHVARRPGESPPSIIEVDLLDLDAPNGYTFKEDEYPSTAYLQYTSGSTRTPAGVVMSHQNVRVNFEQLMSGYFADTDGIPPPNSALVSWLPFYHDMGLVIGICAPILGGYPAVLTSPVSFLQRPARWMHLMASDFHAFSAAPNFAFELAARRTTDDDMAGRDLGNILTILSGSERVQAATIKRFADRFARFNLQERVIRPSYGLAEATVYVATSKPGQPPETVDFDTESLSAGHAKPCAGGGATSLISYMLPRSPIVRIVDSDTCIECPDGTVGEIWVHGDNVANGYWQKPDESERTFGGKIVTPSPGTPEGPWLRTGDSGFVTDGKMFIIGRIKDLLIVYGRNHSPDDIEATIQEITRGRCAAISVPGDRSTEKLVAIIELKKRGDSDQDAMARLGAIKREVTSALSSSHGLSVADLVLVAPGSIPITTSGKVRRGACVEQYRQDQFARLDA

[7] = target: T6, Aminopeptidase N (Plasmodium falciparum FcB1/Columbia, UniProt O96935); experiment: malaria alanyl aminopeptidase activity blockers – biochemical, fluorogenic H-Leu-NHMec substrate, 1536-well (AID 1445); parameters: species or system Plasmodium falciparum 3D7, 3D7
T6 sequence (O96935 whole entry): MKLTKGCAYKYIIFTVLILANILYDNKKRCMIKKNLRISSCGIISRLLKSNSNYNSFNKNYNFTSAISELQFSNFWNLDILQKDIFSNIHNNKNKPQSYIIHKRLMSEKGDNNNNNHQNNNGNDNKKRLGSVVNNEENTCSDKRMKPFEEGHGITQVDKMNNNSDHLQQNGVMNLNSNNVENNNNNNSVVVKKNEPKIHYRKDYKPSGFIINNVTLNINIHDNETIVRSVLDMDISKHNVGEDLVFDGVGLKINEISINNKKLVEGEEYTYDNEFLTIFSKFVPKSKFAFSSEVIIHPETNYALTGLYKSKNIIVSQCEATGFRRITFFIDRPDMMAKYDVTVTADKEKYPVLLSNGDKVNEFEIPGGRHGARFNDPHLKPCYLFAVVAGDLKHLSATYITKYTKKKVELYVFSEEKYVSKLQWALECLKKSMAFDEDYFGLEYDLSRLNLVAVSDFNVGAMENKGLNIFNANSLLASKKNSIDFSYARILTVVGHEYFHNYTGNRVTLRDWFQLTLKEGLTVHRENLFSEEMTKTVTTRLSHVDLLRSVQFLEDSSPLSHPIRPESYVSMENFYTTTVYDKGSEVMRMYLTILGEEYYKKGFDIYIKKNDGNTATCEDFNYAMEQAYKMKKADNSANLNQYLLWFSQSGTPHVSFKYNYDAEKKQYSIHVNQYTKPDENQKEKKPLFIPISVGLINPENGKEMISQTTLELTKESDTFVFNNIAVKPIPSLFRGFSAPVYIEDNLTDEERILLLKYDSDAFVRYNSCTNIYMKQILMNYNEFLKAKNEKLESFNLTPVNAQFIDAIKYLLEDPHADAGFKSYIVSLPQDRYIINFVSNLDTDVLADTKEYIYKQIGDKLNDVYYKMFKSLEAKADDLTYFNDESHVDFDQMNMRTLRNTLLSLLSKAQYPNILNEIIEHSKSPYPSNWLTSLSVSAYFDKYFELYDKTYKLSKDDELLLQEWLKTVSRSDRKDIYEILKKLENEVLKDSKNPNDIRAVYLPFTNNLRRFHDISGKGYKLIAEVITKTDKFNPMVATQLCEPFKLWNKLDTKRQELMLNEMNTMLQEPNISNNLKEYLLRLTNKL

[8] = target: T7, Short transient receptor potential channel 4 (Mus musculus, UniProt Q9QUQ5); experiment: block of DAMGO-driven TRPC4 calcium entry – cell-based, HEK293 TRPC4/mu-opioid, Fluo-4 calcium, dose response (AID 434942); type: functional;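 also: potency of inhibitors blocking the TRPC4 calcium response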
T7 sequence (Q9QUQ5 whole entry): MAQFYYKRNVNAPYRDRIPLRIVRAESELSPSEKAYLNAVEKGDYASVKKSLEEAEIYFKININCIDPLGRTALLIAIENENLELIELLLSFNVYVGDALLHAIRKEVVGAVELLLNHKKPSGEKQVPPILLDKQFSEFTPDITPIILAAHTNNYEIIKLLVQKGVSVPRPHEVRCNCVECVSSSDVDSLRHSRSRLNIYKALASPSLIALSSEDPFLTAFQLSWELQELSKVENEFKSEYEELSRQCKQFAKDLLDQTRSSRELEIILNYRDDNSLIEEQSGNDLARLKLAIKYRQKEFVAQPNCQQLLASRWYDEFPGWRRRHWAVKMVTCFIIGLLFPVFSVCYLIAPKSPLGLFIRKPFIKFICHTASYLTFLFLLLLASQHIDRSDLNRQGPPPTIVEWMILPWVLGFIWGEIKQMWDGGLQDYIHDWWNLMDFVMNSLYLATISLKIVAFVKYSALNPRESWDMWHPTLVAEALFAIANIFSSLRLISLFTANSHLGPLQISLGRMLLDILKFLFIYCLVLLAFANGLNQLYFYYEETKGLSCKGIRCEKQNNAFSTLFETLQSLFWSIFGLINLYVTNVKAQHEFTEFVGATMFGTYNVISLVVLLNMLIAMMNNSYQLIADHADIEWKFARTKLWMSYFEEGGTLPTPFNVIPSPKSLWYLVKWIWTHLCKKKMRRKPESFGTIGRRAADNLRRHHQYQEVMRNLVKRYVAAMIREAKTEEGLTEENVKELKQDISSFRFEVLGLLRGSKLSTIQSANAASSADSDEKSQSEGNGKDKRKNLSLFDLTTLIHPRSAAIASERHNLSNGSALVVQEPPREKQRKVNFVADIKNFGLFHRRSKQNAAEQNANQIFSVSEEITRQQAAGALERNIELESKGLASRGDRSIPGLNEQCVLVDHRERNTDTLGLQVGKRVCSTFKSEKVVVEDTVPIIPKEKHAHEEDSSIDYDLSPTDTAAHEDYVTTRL

[9] = test system: Streptococcus sp. 'group A'; experiment: Streptococcus pyogenes SK(-)GAS viability under kanamycin – luminescence, BacTiterGlo, confirmation, counter-screen for streptokinase expression inhibitor project, dose response (AID 1900); type: functional, organism-based
[10] = test system: Streptococcus; experiment: GAS UMAA2166 growth inhibition – luminescence, BacTiterGlo, counter-screen for streptokinase expression inhibitor project, dose response (AID 1915); type: functional, organism-based;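 also: potency for reduction of bacterial viability or growth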
[11] = target: Genome polyprotein (dengue virus type 2, UniProt P29990); experiment: flavivirus cap methylation enzyme inhibition – biochemical, confirmation dose response, primary screen (AID 588689); type: functional
Chain of Genome polyprotein (P29990 2492-3391 limits assumed): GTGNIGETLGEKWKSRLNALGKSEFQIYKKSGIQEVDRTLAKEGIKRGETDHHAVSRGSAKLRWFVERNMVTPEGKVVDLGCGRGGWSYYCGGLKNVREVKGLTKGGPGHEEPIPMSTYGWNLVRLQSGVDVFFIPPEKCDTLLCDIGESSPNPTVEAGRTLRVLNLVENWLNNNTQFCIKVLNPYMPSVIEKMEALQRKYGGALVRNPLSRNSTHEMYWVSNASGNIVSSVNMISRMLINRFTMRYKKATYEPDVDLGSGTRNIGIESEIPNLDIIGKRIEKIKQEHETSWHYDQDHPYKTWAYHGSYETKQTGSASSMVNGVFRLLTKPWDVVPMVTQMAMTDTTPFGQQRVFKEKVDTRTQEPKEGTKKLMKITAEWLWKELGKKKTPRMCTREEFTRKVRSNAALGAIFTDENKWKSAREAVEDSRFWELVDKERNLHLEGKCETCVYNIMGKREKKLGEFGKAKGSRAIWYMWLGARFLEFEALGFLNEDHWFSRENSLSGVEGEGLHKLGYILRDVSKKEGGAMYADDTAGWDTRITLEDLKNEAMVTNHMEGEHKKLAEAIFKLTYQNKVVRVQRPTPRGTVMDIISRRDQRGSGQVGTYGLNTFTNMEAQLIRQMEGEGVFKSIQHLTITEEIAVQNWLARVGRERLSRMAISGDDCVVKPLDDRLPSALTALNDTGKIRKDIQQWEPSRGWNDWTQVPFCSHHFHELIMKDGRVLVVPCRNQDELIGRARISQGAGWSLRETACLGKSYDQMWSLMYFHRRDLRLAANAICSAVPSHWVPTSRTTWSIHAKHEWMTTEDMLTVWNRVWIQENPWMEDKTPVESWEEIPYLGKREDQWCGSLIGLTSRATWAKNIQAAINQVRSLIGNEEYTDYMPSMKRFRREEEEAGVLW

[12] = target: T8, Nuclear receptor subfamily 0 group B member 1 (Homo sapiens, UniProt P51843); type: functional, cell-based;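 also: HEK293T cells transfected with SF-1 and DAX-1 plus StAR promoter luciferase reporter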
T8 sequence (P51843 whole entry): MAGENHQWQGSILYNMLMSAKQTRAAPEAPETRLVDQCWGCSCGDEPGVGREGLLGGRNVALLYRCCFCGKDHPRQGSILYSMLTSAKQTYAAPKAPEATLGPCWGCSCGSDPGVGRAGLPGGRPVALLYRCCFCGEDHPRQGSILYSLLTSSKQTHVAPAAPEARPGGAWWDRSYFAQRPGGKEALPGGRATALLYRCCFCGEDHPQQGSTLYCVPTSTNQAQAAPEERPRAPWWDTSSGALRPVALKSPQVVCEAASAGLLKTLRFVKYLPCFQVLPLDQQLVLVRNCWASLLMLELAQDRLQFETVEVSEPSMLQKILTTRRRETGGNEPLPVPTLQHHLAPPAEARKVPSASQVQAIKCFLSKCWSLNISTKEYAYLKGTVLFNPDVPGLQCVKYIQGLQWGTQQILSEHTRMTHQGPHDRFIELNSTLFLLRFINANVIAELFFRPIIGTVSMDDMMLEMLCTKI

[13] = cells; type: functional, cell-based

For CCCc1c(OCCCOc2ccc(OCC(=O)O)cc2)ccc(C(C)=O)c1O, the AC50 [1] was 31.6 µM (inconclusive) and the AC50 [2] was 2.54 µM (active).
In the case of Nc1ccc2[nH]c(CCCCCCc3nc4cc(N)ccc4[nH]3)nc2c1, the IC50 [3] is reported as 20.8 µM (inactive) and the IC50 [4] is reported as 5.49 µM (active).
For Sc1nnc(-c2cc3c(s2)-c2ccccc2CC3)o1, the EC50 [5] was > 150 µM (not active), the AC50 [6] was 24.9 µM (active) and the IC50 [7] was 67.4 µM (active). The EC50 [8] was 0.944 µM (active), the EC50 [9] was 11.5 µM (active) and the EC50 [10] was 23.3 µM (inconclusive).
For O=C(CSc1nc2c(c(=O)n1-c1ccccc1)SCC2)N1CCOCC1, the AC50 [2] was 2.62 µM (active).
In the case of Cc1ccc(S(=O)(=O)N2[C@@H](c3cccc(Cl)c3)C(C(=O)O)=CC[C@H]2c2cccc(Cl)c2)cc1, the AC50 [6] is reported as 24.9 µM (active) and the IC50 [11] is reported as 48.3 µM (active).
For C=C(c1ccc2[nH]c(NC(=O)OC)nc2c1)c1cccs1, the IC50 [12] was 2.72 µM (active) and the IC50 [13] was > 67.6 µM (inactive).
With Cc1ccccc1S(=O)(=O)NCC[C@H]1CC[C@@H](NC(=O)Nc2cccc(F)c2)[C@H](CO)O1 the AC50 [2] was 11.3 µM (active).
In the case of CN1c2ccc(-c3cccc(C#N)c3)cc2[C@H]2[C@H](CCN2C(=O)CC2CC2)[C@H]1CO, the AC50 [2] is reported as 3.56 µM (active).
